Test [1] concerns rat pituitary cells. Kind of test: Pituitary cell desensitization - growth hormone release assay. Type of test: cell-based. On the procedure:
The experiment was designed so that cultures were exposed to a growth hormone secretagogue for 60 min, then growth hormone release was measured during a subsequent 15 min exposure to the same or different growth hormone secretagogue.
Anterior pituitary glands from male Wistar rats (150-175 g, Charles River, Laboratories, Wilmington, Mass.) were collected in Hank's Balanced Salt Solution (#14170, Life Technologies, Gaithersburg, Md.). Glands were minced with a scalpel, then incubated with bacterial protease (Type IX, EC3.4.24.4, #P-6141, Sigma Chemicals, Milwaukee, Wis.) at 10 U/ml to release individual cells. Cells were pelleted by centrifugation at 200×g for 15 min, then suspended in culture medium and plated at a density of 6.0-6.5×10^4 cells per 0.5 ml per well in 48-well tissue culture plates (#3848, Costar Corporation, Cambridge, Mass.). Culture medium consisted of D-MEM (Dulbecco's Modified Eagle Medium) with high glucose and sodium bicarbonate (#11965) supplemented with 10% heat-inactivated horse serum (#26050, Life Technologies, Gaithersburg, Md.), 2.5% fetal bovine serum (#16140, Life Technologies, Gaithersburg, Md.), 0.1 mM MEM non-essential amino acids (#11140, Life Technologies, Gaithersburg, Md.), 100 U/ml nystatin (#15340, Life Technologies, Gaithersburg, Md.) and 50 ug/ml gentamicin sulfate (#15750, Life Technologies, Gaithersburg, Md.). Cultures were maintained for 3-4 days in a humidified, 5% CO2/95% air incubator at 37° C. prior to performing assays for growth hormone release.
For growth hormone release assays, cultures were pre-equilibrated at 37° C. in pre-warmed release medium for 1 h in the presence of a growth hormone secretagogue or excipient (Pretreatment). Release medium consisted of Phenol Red-free D-MEM without bicarbonate (#23800, Life Technologies, Gaithersburg, Md.) supplemented with 25 mM N-[2-hydroxyethyl]piperazine-N′-[2-ethanesulfonic acid] (HEPES), 4.5 g/L glucose, 0.11 g/L sodium pyruvate, 0.584 g/L […] and 0.5% bovine serum albumin (#A-7888, Sigma Chemicals, Milwaukee, Wis.), adjusted to pH 7.4. After pretreatment, the medium was removed and replaced with fresh pre-warmed release medium containing a growth hormone secretagogue or excipient at 0.5 ml/well for 15 min (Treatment). Medium from the Treatment was collected, centrifuged to remove any cells, then assayed for growth hormone content by a conventional double-antibody radioimmunoassay using monkey anti-growth hormone antisera (NIDDK anti-rGH-S-5) and reference rat growth hormone standard (NIDDK-rGH-RP) from Dr. A. F. Parlow, Harbor-UCLA Medical Center, Torrance, Calif. Immune complexes were precipitated using goat anti-monkey immunoglobulin G (#55418, Cappel, Durham, N.C.).
Growth hormone secretagogue solutions were prepared at 1000 times the desired concentration and diluted into pre-warmed release medium immediately before use. Peptides such as His-D-Trp-Ala-Trp-Ala-Trp-D-Phe-Lys-NH2 (GHRP-6, #8061, Peninsula Laboratories, Belmont, Calif.) and rat growth hormone releasing factor (GHRH, #8068, Peninsula Laboratories, Belmont, Calif.) were dissolved at 100 μM in 4 mM acetic acid, 10% ethanol, 0.1% bovine serum albumin; other growth hormone secretagogues were dissolved at 5 mM in dimethyl sulfoxide.

For test [2], the system named is rat pituitary cells. Put plainly: Pituitary cell desensitization - intracellular calcium assay. Type of test: cell-based. An excerpt:
Thus, it appears that sustained release formulations would not provide the desired in vivo response. The experiment was designed so that changes in intracellular calcium concentration could be continuously monitored during successive exposures of the same cells to the indicated test substances.
Rat pituitary cells were isolated as described in Example 3 and plated onto poly-D-lysine-coated glass coverslips, one coverslip per well in 12-well plates, at a density of 3-4×10^5 cells per well. Assays were performed 3-4 days after plating. Cells were loaded with 5 μM fura-2 AM (Molecular Probes, Eugene, Oreg.), a calcium-sensitive fluorescent dye, by incubation for 30 min at room temperature. Fura-2 was dissolved in dimethylsulfoxide at 5 mM, then diluted into KRH buffer (115 mM NaCl, 5.4 mM KCl, 1.8 mM CaCl2, 1 mM MgCl2, 0.96 mM NaH2PO4, 25 mM HEPES, 6 mM glucose and 0.05% bovine serum albumin, adjusted to pH 7.3)
To assay changes in intracellular calcium concentration, a coverslip with attached cells was mounted in a perfusion chamber on the stage of an inverted microscope (Zeiss Axiovert 135 with epifluorescence, Geschaftsbereich Mikroscopie, Oberkochen, Germany) and continuously superfused at room temperature. After superfusion with KRH for 1-2 min, baseline fluorescence was recorded. Each test substance was applied for 2 min, followed by washout with KRH prior to stimulation with the next test substance. Up to 20 individual cells per field were selected for recording and were excited alternately at wavelengths of 380 nm or 340 nm (slit width 15 nm). Fluorescence emission at 510 nm was collected at 5 sec intervals by a low light CCD camera (Hamamatsu Photonics, Hamamatsu City, Japan), and digitized images for the two excitation wavelengths were analyzed using Videoprobe software (ETM Systems, Irvine, Calif.) to determine the 340 nm/380 nm fluorescence ratio for individual cells during each time interval. The 340 nm/380 nm fluorescence ratio is proportional to the concentration of intracellular calcium.
On the technique in general: Calcium flux is commonly read through the fluorescence of an indicator in the cells.

Where no end group is shown, it is not given here. [ ]: non-standard residue; d: D form.

As to “GHRH: rat growth hormone releasing factor (GHRH, #8068, Peninsula Laboratories) (HADAIFTSSYRRILGQLYARKLLHEIMNRQQGERNQEQRSRFN; Somatoliberin; UniProt P09916 31-73, looked up) [reference compound]”, in the test on rat pituitary cells [1] (pretreatment 100 nM GHRH 60 min, treatment none), the GH release is listed as 12.67 ± 3.31 ng/mL/15 min.

In the case of “H[dW]AWAW[dF]K-NH2 [GHRP-6, reference compound]”, the GH release in the test on rat pituitary cells [1] (pretreatment 100 nM GHRP-6 60 min, treatment 100 nM GHRP-6 15 min) is 7.83 ± 0.98 ng/mL/15 min; in the test with rat pituitary cells [1] (pretreatment 100 nM GHRP-6 60 min, treatment none), 9.06 ± 1.87 ng/mL/15 min; in the test on rat pituitary cells [1] (pretreatment none, treatment 100 nM GHRP-6 15 min, mean ± SD, n = 4), 31.01 ± 8.46 ng/mL/15 min. Moreover, the “cellular responses (intracellular calcium) on repeated exposure” value in the test with rat pituitary cells [2] (successive 2 min exposures with washout) was “homologous desensitization”.

Take `[Cl-].[K+]` [KCl, reference compound]: the “response of the same (refractory) cells” value with rat pituitary cells [2] (after re-exposure to Compound A) is on record as “remained responsive”.

Values taken from US6641840B2, “Sustained release formulations for growth hormone secretagogues” (Pfizer Inc., priority 2000, dated 2003).
